Measurements as given in PubChem BioAssay AID651569 (Sanford-Burnham Center for Chemical Genomics, 2012).
The source made the active and inactive calls. The rule behind the calls is not given here.

The compounds below were run on luminescent cytotoxicity (cell viability) counter-screen (assay: cytotoxicity of Gli-SUFU antagonist hits, dose response, cytotoxicity control for Gli-SUFU antagonist project, cell-based, luminescence, uHTS hits (AID 651569);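 note: compound exposure lasted overnight before the viability readout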).

Compound	IC50
O=C(Nc1nc(-c2cccs2)cs1)c1cccc(S(=O)(=O)N2CCCCCC2)c1	> 20 µM (inactive)
CC1Cc2cc(S(=O)(=O)N3CCC(C(=O)N4CCN(c5ccccc5F)CC4)CC3)ccc2N1C(=O)C1CC1 (stereo not given)	7.01 µM
CCCCCCCOc1ccc(OC(=O)c2ccncc2)cc1	> 20 µM (inactive)
COc1ccc2c(c1)c(C)cc[n+]2Cc1ccccc1	> 20 µM (inactive)
COC(=O)c1cc(S(=O)(=O)N2CCC(c3cc(OC)ccc3OC)C2)c[nH]1 (stereo not given)	> 20 µM (inactive)
CC(C)(C)[C@H]1COC(=O)[C@H](NC(=O)OCC2c3ccccc3-c3ccccc32)C/C=C\C[C@@H](CC(=O)N(CCO)Cc2ccccc2)C(=O)N1	> 20 µM (inactive)
CC(C)Cn1c(N)c(C(=O)COC(=O)C2Cc3ccccc3CN2S(C)(=O)=O)c(=O)n(C)c1=O (stereo not given)	> 20 µM (inactive)
COc1ccccc1CN(Cc1nc2ccccc2c(=O)[nH]1)S(=O)(=O)c1ccc(C)cc1	> 20 µM (inactive)
O=C(Nc1ccccc1)C1=C[C@@H](C2CCCCC2)C[C@@H](OCCCCO)O1	> 20 µM (inactive)
CC(=O)Nc1ccc(S(=O)(=O)N(Cc2ccccc2)C(C)C)cc1	> 20 µM (inactive)
COc1ccc(C2=[N+](C)CCn3cccc32)c(OC)c1	> 20 µM (inactive)
Clc1ccc(-c2c[n+](Cc3ccc(Cl)cc3Cl)c3n2CCCCC3)cc1	9.17 µM
CNc1nc(NCc2ccccc2)c2ccccc2n1	> 20 µM (inactive)
O=C(Nc1ccccc1)C1=C[C@H](C2CCCCC2)C[C@H](OCCCCO)O1	> 20 µM (inactive)
COc1ccc(-c2noc(CCCCC(=O)N3CCN(c4cc(C)ccc4C)CC3)n2)cc1	> 20 µM (inactive)
N=c1c(-c2nc3ccccc3[nH]2)cc(C(=O)c2ccco2)nn1-c1ccccc1	> 20 µM (inactive)
O=C(C[n+]1cc(-c2ccccc2)n2c1CCCCC2)c1ccc(Cl)cc1	> 20 µM (inactive)
O=C(C[C@@H]1C/C=C\C[C@@H](NC(=O)OCC2c3ccccc3-c3ccccc32)C(=O)OC[C@@H](Cc2ccccc2)NC1=O)NCCO	> 20 µM (inactive)
CCn1c(/C=C/Nc2ccccc2)[n+](CC)c2ccc(Cl)cc21	> 20 µM (inactive)
Cc1nc2sccn2c1-c1csc(NCc2ccccc2)n1	> 20 µM (inactive)
CC(C)C(=O)NC(=S)/C=C1/N(C)c2ccccc2C1(C)C	> 20 µM (inactive)
CCOC(=O)CSc1c(-c2cccs2)[nH]c2ccccc12	> 20 µM (inactive)
Fc1ccc(-n2nnnc2-c2cnc(-c3cccs3)nc2C(F)(F)F)cc1	17 µM
Cc1nn(C)c(C)c1/C=C/C(=O)c1ccc(Cl)cc1Cl	> 20 µM (inactive)
CC(=O)c1c(C)[nH]c(C(=O)OCC(=O)Nc2ccc(C)cc2[N+](=O)[O-])c1C	18.9 µM
CCCc1nc(SCC(=O)Nc2nnc(CC)s2)c2c(=O)n(C)c(=O)n(C)c2n1	> 20 µM (inactive)
Cc1nc2ccccc2c2c1CC(C(C)(Cl)Br)O2 (stereo not given)	> 20 µM (inactive)

Compound	IC50
CCCCCCC[N+](CC)(CC)CCCCc1ccc(Cl)cc1	> 20 µM (inactive)
CCc1ccc(CN(C)C(=O)c2cc(COc3cccc4cnccc34)on2)cc1	> 20 µM (inactive)
COc1ccccc1CCNC(=O)C(=O)NCCC1CCCCN1S(=O)(=O)c1cccs1 (stereo not given)	13.1 µM
CCOC(=O)c1c(NC(=O)COc2cccc3c2CCN(C)C3=O)sc2c1CCC2	> 20 µM (inactive)
Cc1nn(Cc2noc(C(=O)NC3CCC(C)CC3)n2)c(C)c1Br (stereo not given)	> 20 µM (inactive)
C[N+]1(CC(=O)OC2CCCCCCCCCCC2)CCCC1	> 20 µM (inactive)
CC(=O)c1cn(CCOc2ccccc2C)c2ccccc12	> 20 µM (inactive)
CC(=O)/C(=N\Nc1ccc(Cl)cc1Cl)Sc1cccc2cccnc12	> 20 µM (inactive)
Cc1cc(C)c[n+](C(C)C(=O)c2ccc(-c3ccccc3)cc2)c1 (stereo not given)	> 20 µM (inactive)
O=C(N/N=C/c1cc2ccccc2nc1Cl)[C@H]1C[C@@H]1c1ccccc1	> 20 µM (inactive)
O=C(NCCNc1ccnc2cc(Cl)ccc12)c1ccccc1F	> 20 µM (inactive)
CCN1CCCC1CNc1ncnc2c1[nH]c1ccc(Cl)cc12 (stereo not given)	> 20 µM (inactive)
Cc1ccc(Cl)cc1N1CCN(C(=O)CSc2nnc3n2C(C)(C)Cc2ccccc2-3)CC1	> 20 µM (inactive)
CCC(C(=O)NCCC(C)C)n1ccc2cc(S(=O)(=O)N3CCCCC3)ccc21 (stereo not given)	> 20 µM (inactive)
CC(C)(C)OC(=O)N1CCC(c2cc(-c3cccs3)n[nH]2)CC1	> 20 µM (inactive)
O=C(c1cc2sccc2n1Cc1ccc(F)cc1)N1CCN(c2nc3ccccc3s2)CC1	> 20 µM (inactive)
CCOC(=O)N1CCN(C(=O)c2ccc(CSc3ccc(Cl)cc3)cc2)CC1	> 20 µM (inactive)
Cc1nc2ncccn2c1-c1csc(Nc2ccc(O)cc2)n1	> 20 µM (inactive)
CCN(CC)S(=O)(=O)c1ccc(S(=O)(=O)Nc2c(C)nn(C)c2C)cc1	> 20 µM (inactive)
O=C(N[C@@H]1C/C=C\C[C@@H](CC(=O)N(CCO)Cc2ccccc2)C(=O)N[C@@H](c2ccccc2)COC1=O)OCC1c2ccccc2-c2ccccc21	> 20 µM (inactive)
O=C(C[C@H]1C/C=C\C[C@@H](NC(=O)OCC2c3ccccc3-c3ccccc32)C(=O)O[C@@H](c2ccccc2)CNC1=O)N[C@H](CO)Cc1ccccc1	> 20 µM (inactive)
COc1ccc(NS(=O)(=O)c2ccc(N3CCCCC3)c(N)c2)cc1	> 20 µM (inactive)
COc1ccc(CCNc2ncnc3c2oc2ccccc23)cc1OC	> 20 µM (inactive)
COc1ccc(C(C(=O)NC2CCCCC2)N(C(=O)CCl)c2ccc(Cl)cc2)cc1 (stereo not given)	4.86 µM
Cc1ccc(S(=O)(=O)N2CCN(C(=O)C3CCN(c4ncnc5sc(C)c(C)c45)CC3)CC2)c(C)c1	> 20 µM (inactive)
CCCCn1c(CN(C)Cc2ccccc2)nc2c1c(=O)n(C)c(=O)n2C	> 20 µM (inactive)
CCOC(=O)c1c(NC(=O)COc2ncnc3ccccc23)sc(C(C)=O)c1C	> 20 µM (inactive)

Compound	IC50
CCOc1ccc(-c2nc(CSCC(=O)NCC3CCCO3)c(C)o2)cc1 (stereo not given)	> 20 µM (inactive)
CN(Cc1ccc(OC(F)F)cc1)C(=O)c1cccc(S(=O)(=O)N2CCN(Cc3ccccc3)CC2)c1	> 20 µM (inactive)
NC(=O)CC(NC(=O)c1ccccc1)c1ccc(N2CCCCCC2)c([N+](=O)[O-])c1 (stereo not given)	> 20 µM (inactive)
O=C(C[C@@H]1C/C=C\C[C@H](NC(=O)OCC2c3ccccc3-c3ccccc32)C(=O)OC[C@H]2CCCN2C1=O)N[C@H](CO)Cc1ccccc1	> 20 µM (inactive)
CC(C)C(=O)N1CCN(c2ccccc2NC(=O)COc2ccccc2)CC1	> 20 µM (inactive)
C=CCNc1nc2c(c(=O)n(C)c(=O)n2C)n1Cc1ccc(F)cc1	> 20 µM (inactive)
COc1ccccc1C(=O)NC(=S)/C=C1/N(C)c2ccccc2C1(C)C	> 20 µM (inactive)
CC1C(OC(=O)CCC(=O)NC(C)(C)CO)O[C@H]2OC3(C)CC[C@H]4[C@H](C)CCC1C24OO3 (stereo not given in full)	> 20 µM (inactive)
Cc1ccc(OCCN2CCN(c3ncnc4sc(C)c(C)c34)CC2)cc1	> 20 µM (inactive)
Cc1ccc(NC(=O)/C=C/c2ccco2)cc1S(=O)(=O)N1CCCCCC1	6.1 µM
CC(=O)c1cn(Cc2ccccc2F)c2ccccc12	> 20 µM (inactive)
COc1ccc(-n2c(-c3ccc(Cl)cc3)c[n+]3c2CCc2ccccc2-3)cc1	> 20 µM (inactive)
COc1cccc(/C=C/c2ccncc2)c1OC	> 20 µM (inactive)
Cc1ccc(-c2csc(NC(=O)c3c(C)noc3C)n2)s1	> 20 µM (inactive)
O=C(Nc1cc2c3c(c1)C1CCCC1CN3CC1CCCC21)c1ccc([N+](=O)[O-])cc1 (stereo not given)	> 20 µM (inactive)
O=C(Cc1ccc(Cl)cc1Cl)Nc1ccncc1	> 20 µM (inactive)
CN(CCOc1ccc(Cl)cc1)C(=O)c1cccc(S(=O)(=O)N2CCN(c3ccc(F)cc3)CC2)c1	> 20 µM (inactive)
CCOC(=O)c1sc2nc(CC(=O)OC)nc(NCc3ccc(Cl)cc3)c2c1C	> 20 µM (inactive)
O=C(COC(=O)c1ccc2[nH]c3c(c2c1)CCCC3)Nc1ccccc1Cl	> 20 µM (inactive)
Cc1c(C(C)C)c(=O)n(-c2ccc(S(=O)(=O)NC3CCCCC3)cc2)n1C	9.32 µM
COc1cc(C(=O)NC2CCN(C)CC2)ccc1Nc1ncc2c(n1)N(Cc1ccccc1)CCC(=O)N2C	> 20 µM (inactive)
COc1ccc(CNc2ncnc3c2[nH]c2ccccc23)cc1	> 20 µM (inactive)
COc1ccc(-c2nn(-c3ccccc3)cc2/C=N/NC(=O)c2ccc(Br)o2)cc1	> 20 µM (inactive)
CC(C)=CCC/C(C)=C/CNC(=O)C[C@H]1C[C@H](C(=O)N2CCOCC2)[C@@]2(C)c3[nH]c4cc(CCC(=O)N(C)C)ccc4c3CCN2C1=O	> 20 µM (inactive)
COc1ccccc1NS(=O)(=O)c1cccc(C(=O)NC2CCN(Cc3ccccc3)CC2)c1	> 20 µM (inactive)
Cc1sc2ncnc(NCC(O)c3ccc([N+](=O)[O-])cc3)c2c1C (stereo not given)	> 20 µM (inactive)
